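Dose response: 5 concentrations. Exposure: 48 h. Format: 96-well plates. Endpoint: linear interpolation; highest concentration if not reached. GI50 marks 50% less growth.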 Activity calls are given as the source filed them. Cut-off read from the data, not from the text of the source: active = GI50 up to about 1.1 µM and inactive = higher.
Key:
Experiment in all cases: DTP human tumour cell line panel, 48 h
786-0 = test system: 786-0
A498 = test system: A498
A549 = test system: A549
ACHN = test system: ACHN
BT-549 = test system: BT-549
CAKI-1 = test system: CAKI-1
CCRF-CEM = test system: CCRF-CEM
COLO 205 = test system: COLO 205
DU-145 = test system: DU-145
EKVX = test system: EKVX
HCC 2998 = test system: HCC 2998
HCT-116 = test system: HCT-116
HCT-15 = test system: HCT-15
HL-60 = test system: HL-60
HOP-62 = test system: HOP-62
HOP-92 = test system: HOP-92
HT-29 = test system: HT-29
Hs-578T = test system: Hs-578T
IGROV-1 = test system: IGROV-1
K562 = test system: K562
KM12 = test system: KM12
LOX IMVI = test system: LOX IMVI
M14 = test system: M14
MCF7 = test system: MCF7
MDA-MB-231 = test system: MDA-MB-231
MDA-MB-435 = test system: MDA-MB-435
MDA-N = test system: MDA-N
MOLT-4 = test system: MOLT-4
Malme-3M = test system: Malme-3M
NCI-H226 = test system: NCI-H226
NCI-H23 = test system: NCI-H23
NCI-H460 = test system: NCI-H460
NCI-H522 = test system: NCI-H522
NCI/ADR-RES = test system: NCI/ADR-RES
OVCAR-3 = test system: OVCAR-3
OVCAR-4 = test system: OVCAR-4
OVCAR-5 = test system: OVCAR-5
OVCAR-8 = test system: OVCAR-8
PC-3 = test system: PC-3
RPMI-8226 = test system: RPMI-8226
RXF 393 = test system: RXF 393
SF-268 = test system: SF-268
SF-295 = test system: SF-295
SF-539 = test system: SF-539
SK-MEL-28 = test system: SK-MEL-28
SK-MEL-2 = test system: SK-MEL-2
SK-MEL-5 = test system: SK-MEL-5
SK-OV-3 = test system: SK-OV-3
SN12C = test system: SN12C
SNB-19 = test system: SNB-19
SNB-75 = test system: SNB-75
SR = test system: SR
SW-620 = test system: SW-620
T47D = test system: T47D
TK-10 = test system: TK-10
U-251 = test system: U-251
UACC-257 = test system: UACC-257
UACC-62 = test system: UACC-62
UO-31 = test system: UO-31

SMILES: O=C1c2cccnc2C(=O)c2c1nc1ccccc1c2-c1ccc2c3c(nc4ccccc42)C(=O)c2cccnc2-c13
- GI50 (786-0): 0.417 µM (active)
- GI50 (A498): 2.69 µM (inactive)
- GI50 (A549): 2.17 µM (inactive)
- GI50 (ACHN): 0.383 µM (active)
- GI50 (BT-549): 2.46 µM (inactive)
- GI50 (CAKI-1): 1.75 µM (inactive)
- GI50 (CCRF-CEM): 2.07 µM (inactive)
- GI50 (COLO 205): 2.08 µM (inactive)
- GI50 (DU-145): 0.359 µM (active)
- GI50 (EKVX): 0.94 µM (active)
- GI50 (HCC 2998): 1.59 µM (inactive)
- GI50 (HCT-116): 0.459 µM (active)
- GI50 (HCT-15): 0.195 µM
- GI50 (HL-60): 1.2 µM (inactive)
- GI50 (HOP-62): 1.17 µM (inactive)
- GI50 (HOP-92): 10.5 µM (inactive)
- GI50 (HT-29): 2.38 µM (inactive)
- GI50 (Hs-578T): 1.81 µM (inactive)
- GI50 (IGROV-1): 0.0728 µM (active)
- GI50 (K562): 1.58 µM (inactive)
- GI50 (KM12): 0.971 µM (active)
- GI50 (LOX IMVI): 0.437 µM (active)
- GI50 (M14): 0.405 µM (active)
- GI50 (MCF7): 2.07 µM (inactive)
- GI50 (MDA-MB-231): 2.21 µM (inactive)
- GI50 (MDA-MB-435): 1.87 µM (inactive)
- GI50 (MDA-N): 2.13 µM (inactive)
- GI50 (MOLT-4): 0.638 µM (active)
- GI50 (Malme-3M): 1.04 µM (active)
- GI50 (NCI-H226): 0.859 µM (active)
- GI50 (NCI-H23): 1.06 µM (active)
- GI50 (NCI-H460): 1.55 µM (inactive)
- GI50 (NCI-H522): 0.692 µM (active)
- GI50 (NCI/ADR-RES): 1.45 µM (inactive)
- GI50 (OVCAR-3): 0.244 µM (active)
- GI50 (OVCAR-4): 1.08 µM (active)
- GI50 (OVCAR-5): 6.43 µM (inactive)
- GI50 (OVCAR-8): 0.37 µM (active)
- GI50 (PC-3): 1.44 µM (inactive)
- GI50 (RPMI-8226): 1.63 µM (inactive)
- GI50 (RXF 393): 0.838 µM (active)
- GI50 (SF-268): 0.52 µM (active)
- GI50 (SF-295): 2.56 µM (inactive)
- GI50 (SF-539): 0.832 µM (active)
- GI50 (SK-MEL-28): 2.55 µM (inactive)
- GI50 (SK-MEL-2): 2.1 µM (inactive)
- GI50 (SK-MEL-5): 0.467 µM (active)
- GI50 (SK-OV-3): 1.85 µM (inactive)
- GI50 (SN12C): 0.912 µM (active)
- GI50 (SNB-19): 1.84 µM (inactive)
- GI50 (SNB-75): 2.07 µM (inactive)
- GI50 (SR): < 0.01 µM (active)
- GI50 (SW-620): 0.268 µM (active)
- GI50 (T47D): 4.58 µM (inactive)
- GI50 (TK-10): 2.76 µM (inactive)
- GI50 (U-251): 1.75 µM (inactive)
- GI50 (UACC-257): 2.04 µM (inactive)
- GI50 (UACC-62): 1.73 µM (inactive)
- GI50 (UO-31): 1.24 µM (inactive)

SMILES: COc1ccc2c(c1)CCCC(Br)C2=O (stereo not drawn)
- GI50 (786-0): 4.15 µM (inactive)
- GI50 (A498): 19.6 µM (inactive)
- GI50 (A549): 4.71 µM (inactive)
- GI50 (ACHN): 6.32 µM (inactive)
- GI50 (BT-549): 2.55 µM (inactive)
- GI50 (CAKI-1): 2.96 µM (inactive)
- GI50 (CCRF-CEM): 0.337 µM (active)
- GI50 (COLO 205): 3.44 µM (inactive)
- GI50 (DU-145): 15.1 µM (inactive)
- GI50 (EKVX): 18.1 µM (inactive)
- GI50 (HCC 2998): 7.66 µM (inactive)
- GI50 (HCT-116): 0.407 µM (active)
- GI50 (HCT-15): 0.929 µM
- GI50 (HL-60): 3.59 µM (inactive)
- GI50 (HOP-62): 5.55 µM (inactive)
- GI50 (HOP-92): 7.57 µM (inactive)
- GI50 (HT-29): 5.31 µM (inactive)
- GI50 (Hs-578T): 17.1 µM (inactive)
- GI50 (IGROV-1): 1.51 µM (inactive)
- GI50 (K562): 0.447 µM (active)
- GI50 (KM12): 3.24 µM (inactive)
- GI50 (LOX IMVI): 0.379 µM (active)
- GI50 (M14): 3.4 µM (inactive)
- GI50 (MCF7): 3.43 µM (inactive)
- GI50 (MDA-MB-231): 2.92 µM (inactive)
- GI50 (MDA-MB-435): 2.02 µM (inactive)
- GI50 (MDA-N): 2.88 µM (inactive)
- GI50 (MOLT-4): 0.136 µM (active)
- GI50 (Malme-3M): 4.48 µM (inactive)
- GI50 (NCI-H226): 2.18 µM (inactive)
- GI50 (NCI-H23): 4.9 µM (inactive)
- GI50 (NCI-H460): 3.18 µM (inactive)
- GI50 (NCI-H522): 0.265 µM (active)
- GI50 (NCI/ADR-RES): 4.34 µM (inactive)
- GI50 (OVCAR-3): 9.08 µM (inactive)
- GI50 (OVCAR-4): 6.52 µM (inactive)
- GI50 (OVCAR-5): 5.92 µM (inactive)
- GI50 (OVCAR-8): 3.98 µM (inactive)
- GI50 (PC-3): 3.9 µM (inactive)
- GI50 (RPMI-8226): 2.34 µM (inactive)
- GI50 (RXF 393): 4.78 µM (inactive)
- GI50 (SF-268): 3.35 µM (inactive)
- GI50 (SF-295): 3.99 µM (inactive)
- GI50 (SF-539): 2.56 µM (inactive)
- GI50 (SK-MEL-28): 6.92 µM (inactive)
- GI50 (SK-MEL-2): 1.24 µM (inactive)
- GI50 (SK-MEL-5): 2.55 µM (inactive)
- GI50 (SK-OV-3): 3.97 µM (inactive)
- GI50 (SN12C): 2.75 µM (inactive)
- GI50 (SNB-19): 8.18 µM (inactive)
- GI50 (SNB-75): 12.6 µM (inactive)
- GI50 (SR): 0.294 µM (active)
- GI50 (SW-620): 2.29 µM (inactive)
- GI50 (T47D): 23.9 µM (inactive)
- GI50 (TK-10): 4.21 µM (inactive)
- GI50 (U-251): 4.72 µM (inactive)
- GI50 (UACC-257): 11.5 µM (inactive)
- GI50 (UACC-62): 2.8 µM (inactive)
- GI50 (UO-31): 2.17 µM (inactive)
